Laboratory results from US4264577A, “Contraceptive methods and compositions” (Eli Lilly and Company, priority 1980, dated 1981).

Tests used:
rabbits = test: Efficacy in vivo, rods sutured into both uterine horns, bred weekly; design: species or system rabbit; conditions: five rabbits, rods 20% (W/W) in both uterine horns, bred weekly for 225 days
Source text: (b) Five rabbits having rods containing 20% (W/W) sodium tetradecyl
sulfate (as described above) sutured into both uterine horns were bred

rats = conditions: orally (rats); cited from earlier work
[1] = system: female Dutch belted rabbits; test: Efficacy of a vaginal suppository in female rabbits; format: in vivo, rabbit; conditions: 100 mg. PEG suppository with 1 mg. compound, 15 minutes before breeding; 6 animals; after 12 days
Procedure: Suppositories weighing 100 mg. are made to contain 1 mg. of sodium n-tetradecyl sulfate in a vehicle consisting of 35% polyethylene glycol 400, 35% polyethylene glycol 1540, and 30% polyethylene glycol 4000. A suppository is placed in the vagina of each of six female Dutch belted rabbits. After 15 minutes, each rabbit is bred to a buck of proven fertility and is injected with 100 I.U. of human chorionic gonadotropin. Each of six control animals are similarly treated using identical 100 mg. suppositories made from the same vehicle without the active compound. The animals are sacrificed after 12 days and are examined for embryos.

[2] = Drug release rate in vitro from dimethylpolysiloxane rubber, Method A (calcium-free Ringer's, assayed by acrosin inhibition); format: physicochemical
Procedure: An appropriate sample of a dimethylpolysiloxane rubber compound in which is incorporated the test compound is placed in a suitable amount of calcium-free Ringers solution, and the sample and solution are incubated together at 37° C. for a period of time (e.g. 24 hours). The solution is removed and assayed for acrosin inhibition (expressed as units per milligram) using the technique described in Example 1. The equivalent amount of test compound in the removed solution is calculated from standard inhibition curves in which acrosin inhibition is plotted against concentration of the test compound. The calculated result are expressed as micrograms of test compound released per day.
The above test may be repeated for an extended period of time, for example, for 1 day to 360 days, or more, by adding fresh calcium-free Ringer's solution after each removal of the solution for assay.
Samples of a dimethylpolysiloxane rubber composition containing 10% W/W of sodium n-tetradecyl sulfate (prepared by Example 3, Method A) were tested as above described for 14 days. The sample weight was 14 mg. and the amount of added solution was 1 ml. After the 14th day, the release rate from the samples averaged 1-3 micrograms/day.
In another experiment, a dimethylpolysiloxane rubber composition weighing 400 mg. and containing 10% W/W of sodium tetradecyl sulfate (prepared by Example 3, Method A) was studied for a 90-day period.

[3] = Release from coated medicated dimethylpolysiloxane rods into water; format: physicochemical
Procedure: Dimethylpolysiloxane rubber rods (3 mm. diameter) containing 25% (W/W) sodium n-tetradecyl sulfate are prepared by the procedure described in Example 3, Method B. The rods are cut into one-inch pieces. A coating solution is prepared by dissolving 12.5 grams of dimethylpolysiloxane elastomer (DOW-Corning MDX-4-4210) in 37.5 ml of methylene chloride and then dissolving 1.88 grams of curing agent (Dow-Corning MDX-4-4210) therein. A straight pin is placed in the end of each one inch piece of rod. The piece of rod, held by the pin, is dipped into the above solution, and the rod is withdrawn from the solution and drained. The piece of rod is rotated as methylene chloride evaporates. The coated rods are placed in an oven at 120° C. for 10 minutes to cure the coating. The coated rods are then placed in a vacuum oven at 40° C. overnight to remove all methylene chloride. A second and third coat can be applied by the above method.
The release of sodium n-tetradecyl sulfate from the coated medicated rods, prepared as above-described, into water is shown in Table 10, below:
^(a) Weight of rods: 500 mg.; amount of water added: 10 ml.;
temperature: 37° C.; active compound determined by methylene blue

Compound: CCCCCCCCCCCCCCOS(=O)(=O)[O-].[Na+] [n-tetradecyl, sodium n-tetradecyl sulfate]
- pregnancies (rabbits): without any pregnancies noted
- LD50 (rats): greater than 3.5 g/kg.
- Embryos Per Animal (x + std. dev.) [1]: 0.5 ± 1.2
- Total No. of embryos [1]: 3
- release rate from the samples (average) ([2]; 14 mg sample, 10% W/W, 1 ml solution, after the 14th day): 1-3 micrograms/day
- mean release rate ([2]; 400 mg composition, 10% W/W, 90-day period): 14 µg/day
- Amount of sodium n-tetradecyl sulfate released ([2]; Day 0.08 (2 hr.), 400 mg composition, 10% W/W): 77 µg/day
- Amount of sodium n-tetradecyl sulfate released ([2]; Day 0.16 (2 hr.), 400 mg composition, 10% W/W): 75 µg/day
- Amount of sodium n-tetradecyl sulfate released ([2]; Day 0.32 (8 hr.), 400 mg composition, 10% W/W): 72 µg/day
- Amount of sodium n-tetradecyl sulfate released ([2]; Day 1, 400 mg composition, 10% W/W): 69 µg/day
- Amount of sodium n-tetradecyl sulfate released ([2]; Day 2, 400 mg composition, 10% W/W): 50 µg/day
- Amount of sodium n-tetradecyl sulfate released ([2]; Day 5, 400 mg composition, 10% W/W): 15 µg/day
- Amount of sodium n-tetradecyl sulfate released ([2]; Day 7, 400 mg composition, 10% W/W): 37.5 µg/day
- Amount of sodium n-tetradecyl sulfate released ([2]; Day 9, 400 mg composition, 10% W/W): 50.0 µg/day
- Amount of sodium n-tetradecyl sulfate released ([2]; Day 12, 400 mg composition, 10% W/W): 13 µg/day
- Amount of sodium n-tetradecyl sulfate released ([2]; Day 13, 400 mg composition, 10% W/W): 0 µg/day
- Amount of sodium n-tetradecyl sulfate released ([2]; Day 15, 400 mg composition, 10% W/W): 25 µg/day
- Amount of sodium n-tetradecyl sulfate released ([2]; Day 18, 400 mg composition, 10% W/W): 28 µg/day
- Amount of sodium n-tetradecyl sulfate released ([2]; Day 27, 400 mg composition, 10% W/W): 10 µg/day
- Amount of sodium n-tetradecyl sulfate released ([2]; Day 42.5, 400 mg composition, 10% W/W): 7.6 µg/day
- Amount of sodium n-tetradecyl sulfate released ([2]; Day 50.5, 400 mg composition, 10% W/W): 10.5 µg/day
- Amount of sodium n-tetradecyl sulfate released ([2]; Day 57.5, 400 mg composition, 10% W/W): 12.0 µg/day
- Amount of sodium n-tetradecyl sulfate released ([2]; Day 64.5, 400 mg composition, 10% W/W): 8.6 µg/day
- Amount of sodium n-tetradecyl sulfate released ([2]; Day 72.5, 400 mg composition, 10% W/W): 8.3 µg/day
- Amount of sodium n-tetradecyl sulfate released ([2]; Day 76, 400 mg composition, 10% W/W): 5.6 µg/day
- Amount of sodium n-tetradecyl sulfate released ([2]; Day 83, 400 mg composition, 10% W/W): 5.1 µg/day
- Amount of sodium n-tetradecyl sulfate released ([2]; Day 90, 400 mg composition, 10% W/W): 5.0 µg/day
- Release rate from dimethylpolysiloxane, in vitro (Calc. on basis of acrosin inhibition) ([2]; rod used in Table 6): 1 to 3 mg/day
- Amount of sodium n-tetradecyl sulfate released (mg. per 7 days) ([3]; 1 coat, Days 7, 500 mg rod, 25% W/W, 10 ml water 37° C.): 0 mg. per 7 days
- Amount of sodium n-tetradecyl sulfate released (mg. per 7 days) ([3]; 1 coat, Days 14): 0.14 mg. per 7 days
- Amount of sodium n-tetradecyl sulfate released (mg. per 7 days) ([3]; 1 coat, Days 21): 77.4 mg. per 7 days
- Amount of sodium n-tetradecyl sulfate released (mg. per 7 days) ([3]; 1 coat, Days 28): 414.0 mg. per 7 days
- Amount of sodium n-tetradecyl sulfate released (mg. per 7 days) ([3]; 1 coat, Days 35): 128.0 mg. per 7 days
- Amount of sodium n-tetradecyl sulfate released (mg. per 7 days) ([3]; 1 coat, Days 42): 586.0 mg. per 7 days
- Amount of sodium n-tetradecyl sulfate released (mg. per 7 days) ([3]; 1 coat, Days 49): 370.0 mg. per 7 days
- Amount of sodium n-tetradecyl sulfate released (mg. per 7 days) ([3]; 1 coat, Days 56): 524.0 mg. per 7 days
- Amount of sodium n-tetradecyl sulfate released (mg. per 7 days) ([3]; 1 coat, Days 63): 571.0 mg. per 7 days
- Amount of sodium n-tetradecyl sulfate released (mg. per 7 days) ([3]; 1 coat, Days 70): 524.0 mg. per 7 days
- Amount of sodium n-tetradecyl sulfate released (mg. per 7 days) ([3]; 1 coat, Days 77): 471.0 mg. per 7 days
- Amount of sodium n-tetradecyl sulfate released (mg. per 7 days) ([3]; 1 coat, Days 84): 386.0 mg. per 7 days
- Amount of sodium n-tetradecyl sulfate released (mg. per 7 days) ([3]; 1 coat, Days 91): 330.0 mg. per 7 days
- Amount of sodium n-tetradecyl sulfate released (mg. per 7 days) ([3]; 1 coat, Days 98): 349.0 mg. per 7 days
- Amount of sodium n-tetradecyl sulfate released (mg. per 7 days) ([3]; 1 coat, Days 105): 240.0 mg. per 7 days
- Amount of sodium n-tetradecyl sulfate released (mg. per 7 days) ([3]; 1 coat, Days 112): 329.0 mg. per 7 days
- Amount of sodium n-tetradecyl sulfate released (mg. per 7 days) ([3]; 1 coat, Days 119): 286.0 mg. per 7 days
- Amount of sodium n-tetradecyl sulfate released (mg. per 7 days) ([3]; 1 coat, Days 126): 430.0 mg. per 7 days
- Amount of sodium n-tetradecyl sulfate released (mg. per 7 days) ([3]; 2 coat, Days 7): 0 mg. per 7 days
- Amount of sodium n-tetradecyl sulfate released (mg. per 7 days) ([3]; 2 coat, Days 14): 0 mg. per 7 days
- Amount of sodium n-tetradecyl sulfate released (mg. per 7 days) ([3]; 2 coat, Days 21): .03 mg. per 7 days
- Amount of sodium n-tetradecyl sulfate released (mg. per 7 days) ([3]; 2 coat, Days 28): 628.0 mg. per 7 days
- Amount of sodium n-tetradecyl sulfate released (mg. per 7 days) ([3]; 2 coat, Days 35): 124.0 mg. per 7 days
- Amount of sodium n-tetradecyl sulfate released (mg. per 7 days) ([3]; 2 coat, Days 42): 96.0 mg. per 7 days
- Amount of sodium n-tetradecyl sulfate released (mg. per 7 days) ([3]; 2 coat, Days 49): 186.0 mg. per 7 days
- Amount of sodium n-tetradecyl sulfate released (mg. per 7 days) ([3]; 2 coat, Days 56): 135.0 mg. per 7 days
- Amount of sodium n-tetradecyl sulfate released (mg. per 7 days) ([3]; 2 coat, Days 63): 183.0 mg. per 7 days
- Amount of sodium n-tetradecyl sulfate released (mg. per 7 days) ([3]; 2 coat, Days 70): 174.0 mg. per 7 days
- Amount of sodium n-tetradecyl sulfate released (mg. per 7 days) ([3]; 2 coat, Days 77): 229.0 mg. per 7 days
- Amount of sodium n-tetradecyl sulfate released (mg. per 7 days) ([3]; 2 coat, Days 84): 170.0 mg. per 7 days
- Amount of sodium n-tetradecyl sulfate released (mg. per 7 days) ([3]; 2 coat, Days 91): 200.0 mg. per 7 days
- Amount of sodium n-tetradecyl sulfate released (mg. per 7 days) ([3]; 2 coat, Days 98): 190.0 mg. per 7 days
- Amount of sodium n-tetradecyl sulfate released (mg. per 7 days) ([3]; 2 coat, Days 105): 224.0 mg. per 7 days
- Amount of sodium n-tetradecyl sulfate released (mg. per 7 days) ([3]; 2 coat, Days 112): 121.0 mg. per 7 days
- Amount of sodium n-tetradecyl sulfate released (mg. per 7 days) ([3]; 2 coat, Days 119): 100.0 mg. per 7 days
- Amount of sodium n-tetradecyl sulfate released (mg. per 7 days) ([3]; 2 coat, Days 126): 92.0 mg. per 7 days
- Amount of sodium n-tetradecyl sulfate released (mg. per 7 days) ([3]; 3 coat, Days 7): 0 mg. per 7 days
- Amount of sodium n-tetradecyl sulfate released (mg. per 7 days) ([3]; 3 coat, Days 14): .02 mg. per 7 days
- Amount of sodium n-tetradecyl sulfate released (mg. per 7 days) ([3]; 3 coat, Days 21): 0 mg. per 7 days
- Amount of sodium n-tetradecyl sulfate released (mg. per 7 days) ([3]; 3 coat, Days 28): 10.0 mg. per 7 days
- Amount of sodium n-tetradecyl sulfate released (mg. per 7 days) ([3]; 3 coat, Days 35): 142.0 mg. per 7 days
- Amount of sodium n-tetradecyl sulfate released (mg. per 7 days) ([3]; 3 coat, Days 42): 0 mg. per 7 days
- Amount of sodium n-tetradecyl sulfate released (mg. per 7 days) ([3]; 3 coat, Days 49): 186.0 mg. per 7 days
- Amount of sodium n-tetradecyl sulfate released (mg. per 7 days) ([3]; 3 coat, Days 56): 143.0 mg. per 7 days
- Amount of sodium n-tetradecyl sulfate released (mg. per 7 days) ([3]; 3 coat, Days 63): 194.0 mg. per 7 days
- Amount of sodium n-tetradecyl sulfate released (mg. per 7 days) ([3]; 3 coat, Days 70): 174.0 mg. per 7 days
- Amount of sodium n-tetradecyl sulfate released (mg. per 7 days) ([3]; 3 coat, Days 77): 157.0 mg. per 7 days
- Amount of sodium n-tetradecyl sulfate released (mg. per 7 days) ([3]; 3 coat, Days 84): 160.0 mg. per 7 days
- Amount of sodium n-tetradecyl sulfate released (mg. per 7 days) ([3]; 3 coat, Days 91): 140.0 mg. per 7 days
- Amount of sodium n-tetradecyl sulfate released (mg. per 7 days) ([3]; 3 coat, Days 98): 159.0 mg. per 7 days
- Amount of sodium n-tetradecyl sulfate released (mg. per 7 days) ([3]; 3 coat, Days 105): 196.0 mg. per 7 days
- Amount of sodium n-tetradecyl sulfate released (mg. per 7 days) ([3]; 3 coat, Days 112): 157.0 mg. per 7 days
- Amount of sodium n-tetradecyl sulfate released (mg. per 7 days) ([3]; 3 coat, Days 119): 150.0 mg. per 7 days
- Amount of sodium n-tetradecyl sulfate released (mg. per 7 days) ([3]; 3 coat, Days 126): 156.0 mg. per 7 days
